# Test results taken from PMC6593727 (Clinical Pharmacology in Drug Development, 2019).
# Read-outs that look alike come from different tables or passages of the source.
# Legend:
# [1] = target: T1, CYP2C19 (Homo sapiens, UniProt P33261); details: for AUC(0-inf): AUCinf; for half-life: t½
# [2] = target: CYP2D6 (Homo sapiens, UniProt P10635); details: for AUC(0-inf) / Cmax / Tmax / half-life: female, human, plasma, oral; for AUC(0-inf): AUCinf; for Tmax: tmax (median [min‐max]); for half-life: t½
# Chain of CYP2D6 (P10635 whole entry): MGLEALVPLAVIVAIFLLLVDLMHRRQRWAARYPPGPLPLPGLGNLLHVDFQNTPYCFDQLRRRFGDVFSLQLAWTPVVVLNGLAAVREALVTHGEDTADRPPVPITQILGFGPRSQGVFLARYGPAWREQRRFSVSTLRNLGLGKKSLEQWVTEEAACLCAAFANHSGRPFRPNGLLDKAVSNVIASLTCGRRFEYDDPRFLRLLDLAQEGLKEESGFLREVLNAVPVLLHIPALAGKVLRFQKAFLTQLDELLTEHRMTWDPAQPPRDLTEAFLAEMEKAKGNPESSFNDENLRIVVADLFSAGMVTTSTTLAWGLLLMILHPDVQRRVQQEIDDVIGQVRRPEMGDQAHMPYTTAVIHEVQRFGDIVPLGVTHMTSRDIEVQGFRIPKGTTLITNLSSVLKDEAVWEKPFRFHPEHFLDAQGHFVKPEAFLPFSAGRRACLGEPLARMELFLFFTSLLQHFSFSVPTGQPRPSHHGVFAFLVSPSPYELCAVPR
# [3] = target: T1, CYP2C19; details: single oral 20 mg omeprazole with 100 mg ASP8477 vs alone, female subjects; ref first‐in‐human study (8477‐CL‐0001); cited from earlier work
# [4] = target: CYP3A4 (Homo sapiens, UniProt P08684); details: for AUC(0-inf): AUCinf; for Tmax: tmax (median [min‐max]); for half-life: t½
# Chain of CYP3A4 (P08684 whole entry): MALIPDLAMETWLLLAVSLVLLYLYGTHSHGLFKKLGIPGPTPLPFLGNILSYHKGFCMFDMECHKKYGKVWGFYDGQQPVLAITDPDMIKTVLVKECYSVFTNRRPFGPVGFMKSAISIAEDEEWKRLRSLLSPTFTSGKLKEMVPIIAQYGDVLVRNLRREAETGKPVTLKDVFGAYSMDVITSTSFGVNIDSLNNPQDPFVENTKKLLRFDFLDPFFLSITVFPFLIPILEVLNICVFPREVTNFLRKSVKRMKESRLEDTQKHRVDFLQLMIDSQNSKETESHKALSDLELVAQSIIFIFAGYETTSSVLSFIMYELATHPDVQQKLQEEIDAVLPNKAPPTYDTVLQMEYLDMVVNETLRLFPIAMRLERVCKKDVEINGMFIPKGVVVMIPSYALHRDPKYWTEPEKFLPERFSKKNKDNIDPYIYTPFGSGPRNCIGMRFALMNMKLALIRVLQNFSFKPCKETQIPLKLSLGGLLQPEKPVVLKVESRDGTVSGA
# [5] = target: CYP2C9 (Homo sapiens, UniProt P11712); assay: Inje cocktail DDI study: losartan and EXP‐3174 PK, assessment of CYP2C9 activity; details: for AUC(0-inf) / Cmax / Tmax / half-life: female, human, plasma, oral; for AUC(0-inf): AUCinf; for Tmax: tmax (median [min‐max]); for half-life: t½
# Chain of CYP2C9 (P11712 whole entry): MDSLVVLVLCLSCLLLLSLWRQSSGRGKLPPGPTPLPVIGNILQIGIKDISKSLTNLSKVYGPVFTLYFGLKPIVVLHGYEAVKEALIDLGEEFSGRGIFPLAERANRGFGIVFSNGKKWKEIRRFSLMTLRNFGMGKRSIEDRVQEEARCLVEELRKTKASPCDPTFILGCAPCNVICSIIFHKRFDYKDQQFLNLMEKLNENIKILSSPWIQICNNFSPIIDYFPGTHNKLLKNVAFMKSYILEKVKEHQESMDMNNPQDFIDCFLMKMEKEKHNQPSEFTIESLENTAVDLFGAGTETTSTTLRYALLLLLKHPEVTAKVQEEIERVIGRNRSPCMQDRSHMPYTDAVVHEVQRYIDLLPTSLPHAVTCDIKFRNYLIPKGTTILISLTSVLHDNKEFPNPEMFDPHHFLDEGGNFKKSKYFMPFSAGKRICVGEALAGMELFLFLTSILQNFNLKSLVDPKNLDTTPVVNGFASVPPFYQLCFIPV
# [6] = cocktail alone (day 1), mean ± SD
# [7] = + 20 mg ASP8477 once daily (day 7), mean ± SD
# [8] = probe dextromethorphan, + 60 mg ASP8477 once daily (day 14), mean ± SD
# [9] = probe dextromethorphan, + 100 mg ASP8477 once daily (day 23), mean ± SD
# [10] = probe dextromethorphan, + 20 mg ASP8477 once daily (day 7)
# [11] = probe dextromethorphan, + 60 mg ASP8477 once daily (day 14)
# [12] = probe dextromethorphan, + 100 mg ASP8477 once daily (day 23)
# [13] = probe dextromethorphan, + 20 mg ASP8477 once daily (day 7), mean ± SD
# [14] = female, human, plasma, oral, + 20 mg ASP8477 once daily (day 7), mean ± SD
# [15] = female, human, plasma, oral, + 60 mg ASP8477 once daily (day 14), mean ± SD
# [16] = female, human, plasma, oral, cocktail alone (day 1), mean ± SD
# [17] = + 60 mg ASP8477 once daily (day 14), mean ± SD
# [18] = + 100 mg ASP8477 once daily (day 23), mean ± SD
# [19] = + 20 mg ASP8477 once daily (day 7)
# [20] = + 60 mg ASP8477 once daily (day 14)
# [21] = + 100 mg ASP8477 once daily (day 23)
# [22] = female, human, plasma, oral, probe midazolam, + 20 mg ASP8477 once daily (day 7), mean ± SD
# [23] = female, human, plasma, oral, probe midazolam, + 60 mg ASP8477 once daily (day 14), mean ± SD
# [24] = female, human, plasma, oral, probe midazolam, + 100 mg ASP8477 once daily (day 23), mean ± SD
# T1 sequence (P33261 whole entry): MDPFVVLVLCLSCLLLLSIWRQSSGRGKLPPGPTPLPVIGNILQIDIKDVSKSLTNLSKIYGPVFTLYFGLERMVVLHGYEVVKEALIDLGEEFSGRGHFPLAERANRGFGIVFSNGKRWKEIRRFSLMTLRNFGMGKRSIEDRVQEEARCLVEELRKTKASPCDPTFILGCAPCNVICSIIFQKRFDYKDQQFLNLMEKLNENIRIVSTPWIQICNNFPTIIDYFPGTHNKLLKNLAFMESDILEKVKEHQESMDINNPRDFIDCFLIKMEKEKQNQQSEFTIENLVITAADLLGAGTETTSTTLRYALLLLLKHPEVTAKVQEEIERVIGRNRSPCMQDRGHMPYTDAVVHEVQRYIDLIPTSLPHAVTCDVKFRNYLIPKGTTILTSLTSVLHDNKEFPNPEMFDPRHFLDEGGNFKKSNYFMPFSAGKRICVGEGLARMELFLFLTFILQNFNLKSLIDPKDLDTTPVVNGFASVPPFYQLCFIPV
structure (smiles),measurement,setting,value
"COc1ccc2nc([S+]([O-])Cc3ncc(CO)c(OC)c3C)[nH]c2c1 (stereo not drawn) [5‐OH‐Omeprazole, 5‐hydroxyomeprazole]",tmax (median [min‐max]),[1]; cocktail alone (day 1),2.0 (0.98‐4.0) h
same,AUCinf,[1]; [6],550 ± 130 ng·h/mL
same,Cmax,[1]; [6],230 ± 76 ng/mL
same,t½,[1]; [6],1.4 ± 0.56 h
"COc1ccc2c(c1)[C@]13CCCC[C@@H]1[C@H](C2)N(C)CC3 [Dextromethorphan, dextromethorphan, reference compound]",CL/F,[2]; [6],4000 ± 3200 L/h
same,AUC(0-inf),[2]; [7],16 ± 12 ng·h/mL
same,AUC(0-inf),[2]; [6],12 ± 7.9 ng·h/mL
same,Cmax,[2]; [7],1.8 ± 1.2 ng/mL
same,Cmax,[2]; [6],1.3 ± 0.72 ng/mL
same,AUC(0-inf),[2]; [8],39 ± 25 ng·h/mL
same,AUC(0-inf),[2]; [9],65 ± 44 ng·h/mL
same,Cmax,[2]; [8],3.8 ± 2.3 ng/mL
same,Cmax,[2]; [9],5.6 ± 3.1 ng/mL
same,Tmax,[2]; [10],3 h
same,Tmax,[2]; [11],3.1 h
same,Tmax,[2]; [12],3 h
same,half-life,[2]; [13],7.7 ± 2.1 h
same,half-life,[2]; [8],9.3 ± 1.4 h
same,half-life,[2]; [9],9.9 ± 1.5 h
same,Tmax,[2]; cocktail alone (day 1),2 h
same,half-life,[2]; [6],8 ± 2.5 h
"COc1ccc2[nH]c([S+]([O-])Cc3ncc(C)c(OC)c3C)nc2c1 (stereo not drawn) [Omeprazole, omeprazole]",CL/F,[1]; [6],40 ± 20 L/h
same,AUC(0-inf),[1]; [14],1200 ± 520 ng·h/mL
same,AUC(0-inf),[1]; [15],2500 ± 680 ng·h/mL
same,AUC(0-inf),"[1]; female, human, plasma, oral, + 100 mg ASP8477 once daily (day 23), mean ± SD",3300 ± 1100 ng·h/mL
same,AUC(0-inf),[1]; [16],630 ± 300 ng·h/mL
same,Cmax,"[1]; female, human, plasma, oral, Cmax, + 20 mg ASP8477 once daily (day 7), mean ± SD",640 ± 190 ng/mL
same,Cmax,"[1]; female, human, plasma, oral, Cmax, + 60 mg ASP8477 once daily (day 14), mean ± SD",910 ± 260 ng/mL
same,Cmax,"[1]; female, human, plasma, oral, Cmax, + 100 mg ASP8477 once daily (day 23), mean ± SD",1100 ± 250 ng/mL
same,Cmax,"[1]; female, human, plasma, oral, Cmax, cocktail alone (day 1), mean ± SD",320 ± 150 ng/mL
same,half-life,[1]; [14],0.77 ± 0.2 h
same,half-life,[1]; [15],1.1 ± 0.25 h
same,half-life,[1]; [16],0.79 ± 0.17 h
same,increase of omeprazole AUCinf,[3],7 fold
same,increase of omeprazole Cmax,[3],3.5 fold
"OCc1ncc2n1-c1ccc(Cl)cc1C(c1ccccc1F)=NC2 [1‐OH‐Midazolam, 1‐hydroxymidazolam]",tmax (median [min‐max]),[4]; cocktail alone (day 1),0.52 (0.48‐1.0) h
same,AUCinf,[4]; [6],12 ± 6.1 ng·h/mL
same,Cmax,[4]; [6],5.5 ± 3.0 ng/mL
same,t½,[4]; [6],7.8 ± 13 h
"CCCCc1nc(Cl)c(C(=O)O)n1Cc1ccc(-c2ccccc2-c2nn[nH]n2)cc1 [EXP‐3174, losartan acid]",AUC(0-inf),[5]; [7],1100 ± 280 ng·h/mL
same,AUC(0-inf),[5]; [17],960 ± 240 ng·h/mL
same,AUC(0-inf),[5]; [18],780 ± 250 ng·h/mL
same,AUC(0-inf),[5]; [6],1100 ± 370 ng·h/mL
same,Cmax,[5]; [7],96 ± 48 ng/mL
same,Cmax,[5]; [17],54 ± 26 ng/mL
same,Cmax,[5]; [18],35 ± 19 ng/mL
same,Cmax,[5]; [6],100 ± 65 ng/mL
same,Tmax,[5]; [19],5 h
same,Tmax,[5]; [20],8 h
same,Tmax,[5]; [21],8.1 h
same,Tmax,[5]; cocktail alone (day 1),4 h
same,half-life,[5]; [7],8.8 ± 3.5 h
same,half-life,[5]; [17],13 ± 3.7 h
same,half-life,[5]; [18],12 ± 2.5 h
same,half-life,[5]; [6],8 ± 0.64 h
"CN1CC[C@@]23CCCC[C@@H]2[C@@H]1Cc1ccc(O)cc13 [Dextrorphan, dextrorphan]",AUC(0-inf),[2]; [7],2400 ± 420 ng·h/mL
same,AUC(0-inf),[2]; [6],2400 ± 450 ng·h/mL
same,Cmax,[2]; [7],470 ± 110 ng/mL
same,Cmax,[2]; [6],490 ± 133 ng/mL
same,AUC(0-inf),[2]; [8],2700 ± 510 ng·h/mL
same,AUC(0-inf),[2]; [9],3000 ± 520 ng·h/mL
same,Cmax,[2]; [8],430 ± 110 ng/mL
same,Cmax,[2]; [9],400 ± 100 ng/mL
same,Tmax,[2]; [10],2 h
same,Tmax,[2]; [11],3.1 h
same,Tmax,[2]; [12],3 h
same,half-life,[2]; [13],6.5 ± 1.7 h
same,half-life,[2]; [8],8.8 ± 2.1 h
same,half-life,[2]; [9],9.9 ± 2.4 h
same,Tmax,[2]; cocktail alone (day 1),2 h
same,half-life,[2]; [6],5.8 ± 1.2 h
"CCCCc1nc(Cl)c(CO)n1Cc1ccc(-c2ccccc2-c2nn[nH]n2)cc1 [Losartan, losartan, reference compound]",CL/F,[5]; [6],140 ± 61 L/h
same,AUC(0-inf),[5]; [7],230 ± 100 ng·h/mL
same,AUC(0-inf),[5]; [17],320 ± 140 ng·h/mL
same,AUC(0-inf),[5]; [18],410 ± 180 ng·h/mL
same,AUC(0-inf),[5]; [6],220 ± 100 ng·h/mL
same,Cmax,[5]; [7],78 ± 37 ng/mL
same,Cmax,[5]; [17],81 ± 59 ng/mL
same,Cmax,[5]; [18],80 ± 64 ng/mL
same,Cmax,[5]; [6],64 ± 33 ng/mL
same,Tmax,[5]; [19],0.52 h
same,Tmax,[5]; [20],0.52 h
same,Tmax,[5]; [21],0.5 h
same,Tmax,[5]; cocktail alone (day 1),1 h
same,half-life,[5]; [7],4 ± 2.2 h
same,half-life,[5]; [17],5 ± 2.2 h
same,half-life,[5]; [18],7.6 ± 3.3 h
same,half-life,[5]; [6],3.7 ± 2.5 h
"Cc1ncc2n1-c1ccc(Cl)cc1C(c1ccccc1F)=NC2 [Midazolam, midazolam]",CL/F,[4]; [6],66 ± 15 L/h
same,AUC(0-inf),[4]; [22],38 ± 11 ng·h/mL
same,AUC(0-inf),[4]; [23],49 ± 15 ng·h/mL
same,AUC(0-inf),[4]; [24],51 ± 15 ng·h/mL
same,Cmax,"[4]; female, human, plasma, oral, probe midazolam, Cmax, + 20 mg ASP8477 once daily (day 7), mean ± SD",16 ± 5.7 ng/mL
same,Cmax,"[4]; female, human, plasma, oral, probe midazolam, Cmax, + 60 mg ASP8477 once daily (day 14), mean ± SD",20 ± 5.1 ng/mL
same,Cmax,"[4]; female, human, plasma, oral, probe midazolam, Cmax, + 100 mg ASP8477 once daily (day 23), mean ± SD",21 ± 5.1 ng/mL
same,Tmax,"[4]; female, human, plasma, oral, probe midazolam, + 20 mg ASP8477 once daily (day 7)",0.52 h
same,Tmax,"[4]; female, human, plasma, oral, probe midazolam, + 60 mg ASP8477 once daily (day 14)",0.52 h
same,Tmax,"[4]; female, human, plasma, oral, probe midazolam, + 100 mg ASP8477 once daily (day 23)",0.5 h
same,Tmax,"[4]; female, human, plasma, oral, probe midazolam, cocktail alone (day 1)",0.52 h
same,half-life,[4]; [22],5 ± 0.93 h
same,half-life,[4]; [23],5.1 ± 0.95 h
same,half-life,[4]; [24],5.1 ± 1.2 h
